According to a compilation of properties of binary mixtures (doi:10.1007/s10953-005-5594-7):

Assay: xn = mol fraction of the nth substance listed
Conditions: 298.15 K, 101.3 kPa

CCCC[n+]1ccn(C)c1.F[P-](F)(F)(F)(F)F + CC(C)=O
Conditions | viscosity [mPa·s]
x2 = 0 | 270
x2 = 0.1147 | 137
x2 = 0.198 | 84.8
x2 = 0.2923 | 46.7
x2 = 0.4035 | 24
x2 = 0.4993 | 13.41
x2 = 0.5495 | 9.68
x2 = 0.6519 | 4.99
x2 = 0.6989 | 3.69
x2 = 0.8956 | 0.81
x2 = 0.9481 | 0.516

CCCC[n+]1ccn(C)c1.F[P-](F)(F)(F)(F)F + CCC(=O)CC
Conditions | viscosity [mPa·s]
x2 = 0 | 270

CCCC[n+]1ccn(C)c1.F[P-](F)(F)(F)(F)F + CCC(C)=O
Conditions | viscosity [mPa·s]
x2 = 0 | 270
x2 = 0.0995 | 145
x2 = 0.2007 | 81.6
x2 = 0.5002 | 13.55
x2 = 0.5506 | 9.82
x2 = 0.5988 | 7.27
x2 = 0.7023 | 3.701
x2 = 0.8004 | 1.861
x2 = 0.9027 | 0.861
x2 = 0.9487 | 0.606

CC(C)=O + CCCC[n+]1ccn(C)c1.F[P-](F)(F)(F)(F)F
Conditions | viscosity [mPa·s]
x1 = 1 | 0.316

CCC(=O)CC + CCCC[n+]1ccn(C)c1.F[P-](F)(F)(F)(F)F
Conditions | viscosity [mPa·s]
x1 = 0.1088 | 137
x1 = 0.3986 | 24.26
x1 = 0.4491 | 17.94
x1 = 0.5503 | 10.02
x1 = 0.601 | 7.37
x1 = 0.6983 | 4.03
x1 = 0.8007 | 2.022
x1 = 0.9019 | 0.972
x1 = 0.948 | 0.69
x1 = 1 | 0.458

CCC(C)=O + CCCC[n+]1ccn(C)c1.F[P-](F)(F)(F)(F)F
Conditions | viscosity [mPa·s]
x1 = 1 | 0.388

CCOC(C)=O + CCCC[n+]1ccn(C)c1.F[P-](F)(F)(F)(F)F
Conditions | viscosity [mPa·s]
x1 = 1 | 0.439

O=C1CCCC1 + CCCC[n+]1ccn(C)c1.F[P-](F)(F)(F)(F)F
Conditions | viscosity [mPa·s]
x1 = 0.1883 | 114.8
x1 = 0.4475 | 33.04
x1 = 0.5025 | 24.71
x1 = 0.6034 | 14.52
x1 = 0.6502 | 11.01
x1 = 0.7011 | 7.89
x1 = 0.8041 | 4.19
x1 = 0.8982 | 2.274
x1 = 0.9518 | 1.566
x1 = 1 | 1.074

CCCC[n+]1ccn(C)c1.F[P-](F)(F)(F)(F)F + CCOC(C)=O
Conditions | viscosity [mPa·s]
x2 = 0 | 270
x2 = 0.0937 | 149
x2 = 0.1914 | 87.9
x2 = 0.2918 | 48.2
x2 = 0.3944 | 27.52
x2 = 0.4485 | 20.54
x2 = 0.4967 | 16.16
x2 = 0.5529 | 11.52
x2 = 0.6039 | 8.45
x2 = 0.7092 | 4.21
x2 = 0.8037 | 2.208
x2 = 0.898 | 1.083
x2 = 0.9504 | 0.699
